US9353088B2, “Crystalline pharmaceutical and methods of preparation and use thereof” (SARcode Bioscience Inc., priority 2009, dated 2016)

Tested on: tester strains
Experiment: In vitro Ames bacterial reverse mutation assay
Type: cell-based
Conditions: presence or absence of microsomal (S9) enzymes
Text: Therefore, the compound of Formula I was judged to be not mutagenic.

For `CS(=O)(=O)c1cccc(C[C@H](NC(=O)c2c(Cl)cc3c(c2Cl)CCN(C(=O)c2ccc4ccoc4c2)C3)C(=O)O)c1` [Compound of Formula I], the mutagenicity was “not mutagenic”.
